Reference: article PMC9457730, “Ajuforrestin A, an Abietane Diterpenoid from Ajuga ovalifolia var. calanthe, Induces A549 Cell Apoptosis by Targeting SHP2” (Molecules, 2022)

What was measured:
SHP1 = target: T1, SHP1 (Homo sapiens, UniProt P29350); assay: SHP1 catalytic activity in vitro (DiFMUP substrate); assay type: biochemical; conditions: for inhibitory effect on SHP1 catalytic activity: at high concentrations
T1 construct: GST; made in house; host or cells: Escherichia coli BL21
Method: (§1) Escherichia coli BL21 was used to express SHP1 and SHP2 protein and proteins were purified with GST tag. In total, 15 nM SHP1 or SHP2 purified protein, a test compound (10 μM) or DMSO and reaction buffer in 100 μL constitute the reaction system. DiFMUP (10 μM) was added to the reaction system to initiate the reaction. The inhibitory effects of compounds 1–3 were detected by Varioskan Lux with 355 nm excitation and 460 nm emission wavelengths.

SHP2 [1] = target: T2, SHP2 (Homo sapiens, UniProt Q06124); assay: SHP2 catalytic activity in vitro (DiFMUP substrate); assay type: biochemical; set-up: GST; made in house; host or cells: Escherichia coli BL21; conditions: 15 nM purified SHP2, DiFMUP 10 μM
T2 sequence (Q06124 1-593): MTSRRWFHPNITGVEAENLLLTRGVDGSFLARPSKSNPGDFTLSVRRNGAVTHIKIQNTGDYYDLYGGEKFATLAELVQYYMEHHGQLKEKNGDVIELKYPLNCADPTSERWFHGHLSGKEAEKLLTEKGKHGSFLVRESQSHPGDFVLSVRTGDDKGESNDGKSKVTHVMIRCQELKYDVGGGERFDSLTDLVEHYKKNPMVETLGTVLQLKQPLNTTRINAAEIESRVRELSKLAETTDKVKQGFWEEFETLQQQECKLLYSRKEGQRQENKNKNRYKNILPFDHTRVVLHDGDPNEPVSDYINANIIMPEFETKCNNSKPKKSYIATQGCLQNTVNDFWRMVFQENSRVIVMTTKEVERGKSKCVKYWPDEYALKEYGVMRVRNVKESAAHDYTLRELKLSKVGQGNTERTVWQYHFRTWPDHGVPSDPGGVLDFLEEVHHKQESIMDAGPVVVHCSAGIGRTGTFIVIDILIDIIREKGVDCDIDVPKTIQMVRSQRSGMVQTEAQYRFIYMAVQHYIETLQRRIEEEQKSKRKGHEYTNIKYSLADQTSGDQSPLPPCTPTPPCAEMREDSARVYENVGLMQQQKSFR
Method: as §1

SHP2 [2] = target: T2, SHP2; assay: Cellular thermal shift assay (CETSA); assay type: binding; set-up: endogenous in cells; host or cells: A549; conditions: A549 cell supernatant
Method: A total of 549 cells in 12 cm dish were collected and washed with PBS three times. After three rounds of liquid nitrogen-thaw and centrifugation at 13,000× g for 10 min at 4 °C, the cell supernatant was collected. The cell supernatant was divided into two aliquots of 50 μL each. Compound 2 or DMSO was added to each sample. The sample was heated from 50 °C to 62 °C, then cooled for 3 min [33]. Finally, all samples were processed under 4.7.

[3] = system: cleaved caspase-3, 8, 9 and cleaved-PARP; assay: Western blot of apoptosis-related signaling pathway; assay type: cell-based, Human; conditions: A549, 72 h
Method: (§2) After compound 2 treatment, RIPA buffer was used to lyse cells’ protein. Equal sample proteins were added in SDS-PAGE, separated with 100 V in 60 min, then transferred into PVDF membranes, and the membranes incubated with corresponding primary antibodies (Huabio, Hangzhou, China). GAPDH or Tubulin served as normal control.

SHP2 [4] = assay: Western blot of cellular SHP2 / p-SHP2 expression; assay type: cell-based, Human; conditions: A549, 72 h
Method: as §2

[5] = system: p-ERK1/2, PI3K-AKT and STAT3 signaling pathways; assay: Western blot of ERK, AKT, STAT3 signaling pathway; assay type: cell-based, Human; conditions: A549, 72 h
Method: as §2

A549 cells [6] = assay: Apoptosis flow cytometry (Annexin V-FITC/PI); assay type: cell-based, Human; conditions: A549, 72 h
Method: After 72 h treatment with different concentrations of compound 2, A549 cells were collected and rinsed three times with PBS. A 195 μL Annexin V-FITC buffer, 5 μL Annexin V-FITC, and 10 μL PI were sequentially added to each sample. The apoptotic cells were detected and analyzed by flow cytometry (ACEA NovoCyte, Hangzhou, China).

A549 cells [7] = assay: A549 cell wound-healing assay; assay type: cell-based, Human; conditions: up to 72 h
Method: When the A549 cell covered 80% of cell culture dish, these cells were seeded in 6-well plates at 5 × 10^5 cells/well, respectively. After the cells adhered to the plates, wound formation was performed by 200 μL pipette tips. Then, A549 cells were treated with different concentrations of compound 2 for 72 h. The image of each gap was obtained by Leica TCS SP8 (Leica, Wetzlar, Germany) at 0, 24, 72 h, respectively.

A549 cells [8] = assay: A549 cell invasion assay (matrigel); assay type: cell-based, Human; conditions: 24 h incubation
Method: The inner chamber was pre-coated with matrigel. Cells were seeded in the inner chamber with FBS-free medium, and DMEM medium with 5% FBS was added to the outer chamber. After a 24 h treatment with compound 2, 4% paraformaldehyde was used to fix the cells and 0.1% crystal violet was used to stain A549 cells.

A549 cells [9] = assay: Cell viability assay (CCK-8); assay type: cell-based, Human
caspase-3 = assay: Caspase-3 activity assay (Ac-DEVD-AFC); assay type: cell-based, Human; conditions: A549, 72 h
Method: Ac-DEVD-AFC, a caspase-3 fluorimetric substrate, was used to detect caspase-3 activity. After 72 h treatment with compound 2, cell supernatants were collected. The 20 μL cell supernatants, 100 μM Ac-DEVD-AFC, and reaction buffer constituted the 100 μL reaction system, and was then incubated at 37 °C for another 1 h. Caspase-3 activity was detected by Varioskan Lux with 405 nm excitation and 510 nm emission wavelengths.

T1 sequence (P29350 whole entry): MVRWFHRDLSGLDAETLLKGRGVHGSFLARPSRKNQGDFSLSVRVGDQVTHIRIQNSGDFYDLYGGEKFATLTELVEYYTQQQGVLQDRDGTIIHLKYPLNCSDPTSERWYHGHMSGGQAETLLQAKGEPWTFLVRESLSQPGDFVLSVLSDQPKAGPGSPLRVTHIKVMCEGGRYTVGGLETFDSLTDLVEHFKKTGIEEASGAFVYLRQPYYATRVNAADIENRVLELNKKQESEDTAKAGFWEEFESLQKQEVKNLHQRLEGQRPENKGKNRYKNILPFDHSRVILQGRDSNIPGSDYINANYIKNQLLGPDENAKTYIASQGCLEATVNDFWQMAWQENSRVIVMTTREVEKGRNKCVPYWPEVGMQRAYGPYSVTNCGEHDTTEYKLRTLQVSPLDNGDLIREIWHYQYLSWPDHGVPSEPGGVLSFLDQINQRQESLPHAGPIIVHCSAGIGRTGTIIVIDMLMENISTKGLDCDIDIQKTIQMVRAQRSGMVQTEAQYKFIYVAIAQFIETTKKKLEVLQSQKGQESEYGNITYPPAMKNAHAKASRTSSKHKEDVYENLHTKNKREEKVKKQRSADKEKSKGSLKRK

Compound	inhibitory effect on SHP1 catalytic activity (SHP1)	IC50 (SHP2 [1]) [µM]	SHP2 stability with increasing concentration (CETSA) (SHP2 [2])	SHP2 thermal stability (CETSA) (SHP2 [2]; 50 °C to 62 °C)	cleaved-PARP [3]	cleaved caspase-3, 8, 9 ([3]; various doses)	cellular SHP2 expression (SHP2 [4])	expression of SHP2 and phosphorylation of SHP2 (SHP2 [4])	p-ERK1/2 expression [5]	PI3K-AKT and STAT3 signaling pathways ([5]; various concentrations)	apoptotic cells (A549 cells [6])	A549 cell migration (A549 cells [7])	A549 cell invasion ability (A549 cells [8])	inhibitory effect on SHP1 (SHP1; below 20 μM)	A549 cell viability (A549 cells [9]; 24 h treatment)	IC50 (A549 cells [9]; Homo sapiens, A549, CCK-8, 72 h, read-out: IC50 A549 cell proliferation) [µM]	caspase-3 expression (caspase-3)
CC1=C(C)C2=CC(=O)c3c(O)c4c(c(O)c3[C@@]2(C)CC1=O)OC[C@H]4C [Compound 3, Ajudecumin A]	inhibited SHP1 catalytic activity at high concentrations	20 ± 1.31	–	–	–	–	–	–	–	–	–	–	–	–	–	–	–
CC1=C(C)C2=CC(=O)C3=C(C(=O)c4oc(C)cc4C3=O)[C@@]2(C)CC1 [Compound 1, 12, 16-epoxy-17(15→16), 18(4→3)-diabeo-abieta-3,5,8, 12, 15-pentaene-7, 11, 14-trione]	inhibited SHP1 catalytic activity at high concentrations	26 ± 1.41	–	–	–	–	–	–	–	–	–	–	–	–	–	–	–
CC1=C(C)C2=CC(=O)c3c(c(O)c4occ(C)c4c3O)[C@@]2(C)CC1 [Compound 2, Ajuforrestin A]	–	7.01 ± 0.85	raised SHP2 stability	decrease in SHP2 expression with increasing temperature was suppressed	activated	up-regulated	suppressed SHP2 expression in a dose-dependent manner	down-regulated	markedly inhibited p-ERK1/2 expression	obviously inhibited	obvious increase in apoptotic cells	significantly restrained A549 cell migration	obviously decreased	no inhibitory effects	did not affect A549 cell viability	8.68 ± 0.96	significant rise in caspase-3 expression in a dose-dependent manner
